# Measured values: patent publication US9738652B2, “Spiro urea compounds as RSV antiviral compounds” (priority 2014, dated 2017)
# Assays:
# [1] = Cytotoxicity in HeLa cells (ATPlite, CC50) used for selectivity index; settings: human
# Description: The wells contain 0.05% DMSO per volume. Cells were incubated at 37° C. in a 5% CO2 atmosphere. […] In parallel, compounds were incubated for three days in a set of white 384-well microtiter plates (Corning) and the cytotoxicity of compounds in HeLa cells was determined by measuring the ATP content of the cells using the ATPlite kit (Perkin Elmer, Zaventem, Belgium) according to the manufacturer's instructions. The CC50 was defined as the 50% concentration for cytotoxicity.
# rgRSV224 virus = experiment: Antiviral activity: rgRSV224 (GFP) replication in HeLa cells; settings: human respiratory syncytial virus, 72 h, read-out: RSV HELA pEC50 (converted)
# Description: Black 384-well clear-bottom microtiter plates (Corning, Amsterdam, The Netherlands) were filled via acoustic drop ejection using the echo liquid handler (Labcyte, Sunnyvale, Calif.). 200 nL of compound stock solutions (100% DMSO) were transferred to the assay plates. 9 serial 4-fold dilutions of compound were made, creating per quadrant the same compound concentration. The assay was initiated by adding 10 μL of culture medium to each well (RPMI medium without phenol red, 10% FBS-heat inactivated, 0.04% gentamycin (50 mg/mL). All addition steps are done by using a multidrop dispenser (Thermo Scientific, Erembodegem, Belgium). Next, rgRSV224 virus (MOI=1) diluted in culture medium was added to the plates. rgRSV224 virus is an engineered virus that includes an additional GFP gene (Hallak L K, Spillmann D, Collins P L, Peeples M E. Glycosaminoglycan sulfation requirements for respiratory syncytial virus infection; Journal of virology (2000), 74(22), 10508-13) and was in-licensed from the NIH (Bethesda, Md., USA). Finally, 20 μL of a HeLa cell suspension (3,000 cells/well) were plated. Medium, virus- and mock-infected controls were included in each test. The wells contain 0.05% DMSO per volume. Cells were incubated at 37° C. in a 5% CO2 atmosphere. Three days post-virus exposure, viral replication was quantified by measuring GFP expression in the cells by an in house developed MSM laser microscope (Tibotec, Beerse, Belgium). The EC50 was defined as the 50% inhibitory concentration for GFP expression. In parallel, compounds were incubated for three days in a set of white 384-well microtiter plates (Corning) and the cytotoxicity of compounds in HeLa cells was determined by measuring the ATP content of the cells using the ATPlite kit (Perkin Elmer, Zaventem, Belgium) according to the manufacturer's instructions. The CC50 was defined as the 50% concentration for cytotoxicity.
Structure (SMILES),selectivity ratio at 3 days [1],EC50 (rgRSV224 virus) [nM],melting point [°C]
"CNC(=O)N1CCC2(CC1)C(=O)N(Cc1nc3cc(Cl)ccc3n1CCCC#N)c1cnccc12 [Co. No. 26, 1′-[[5-chloro-1-(3-cyanopropyl)benzimidazol-2-yl]methyl]-N-methyl-2′-oxo-spiro[piperidine-4,3′-pyrrolo[2,3-c]pyridine]-1-carboxamide]",> 1.82e+06,0.055,99.81
"O=C(NC1CC(O)C1)N1CC2(C1)C(=O)N(Cc1nc3nc(Cl)ccc3n1CCCCF)c1ccccc12 (centres unmarked) [Co. No. 21, 1′-[[5-chloro-1-(4-fluorobutyl)imidazo[4,5-b]pyridin-2-yl]methyl]-N-(3-hydroxycyclobutyl)-2′-oxo-spiro[azetidine-3,3′-indoline]-1-carboxamide]",> 71400,1.41,–
